The record followed here is patent publication US11142526B2, “Spirocycle compounds and methods of making and using same” (H. Lundbeck A/S, priority 2017, dated 2021).

For assay [1], the target named is T1, MAGL (Mus musculus (Mouse), UniProt O35678). Nature of the assay: In vitro competitive activity-based protein profiling, mouse brain proteome. It is filed as biochemical. As to conditions: for inhibition at 1 µM: mouse; for IC50: mouse brain.
In assay [2] the target is T1, MAGL. Briefly: Mouse brain proteomes from inhibitor treated mice (oral gavage, brain MAGL activity 4 h after administration). In kind it is in vivo. As to conditions: 5 mg/kg oral gavage. How it is done: Preparation of Mouse Brain Proteomes from Inhibitor Treated Mice.
Inhibitors were administered to wild-type C57B1/6J by oral gavage in a vehicle of polyethylene glycol.

T1 sequence (O35678 whole entry): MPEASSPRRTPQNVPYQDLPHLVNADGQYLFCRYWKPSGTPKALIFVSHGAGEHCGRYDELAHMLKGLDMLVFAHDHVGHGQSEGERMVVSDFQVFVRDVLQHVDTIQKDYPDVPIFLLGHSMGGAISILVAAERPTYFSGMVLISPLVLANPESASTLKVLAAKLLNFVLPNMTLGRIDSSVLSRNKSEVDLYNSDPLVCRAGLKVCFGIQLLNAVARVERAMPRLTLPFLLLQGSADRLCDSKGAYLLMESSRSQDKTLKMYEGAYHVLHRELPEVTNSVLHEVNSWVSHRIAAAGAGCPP

For the molecule `O=C(OC(C(F)(F)F)C(F)(F)F)N1CCC2(CCCN2C(=O)c2cc3cc(Cl)cc(Cl)c3[nH]2)CC1` [Example 16, 1,1,1,3,3,3-Hexafluoropropan-2-yl 1-(5,7-dichloro-1H-indole-2-carbonyl)-1,8-diazaspiro[4.5]decane-8-carboxylate], at MAGL [1], the inhibition at 1 µM was more than 75% and the half-maximal inhibitory concentration (IC50) was less than 100 nM. For the same molecule, the “MAGL % Inhibition at 5 mg/kg (Mouse)” value at MAGL [2] was “### (% inhibition is greater than or equal to 75%)”.
The corresponding values for `O=C(OC(C(F)(F)F)C(F)(F)F)N1CCC2(CCCN2Cc2cc3cc(C(F)(F)F)ccc3s2)CC1` [Example 41, 1,1,1,3,3,3-Hexafluoropropan-2-yl 1-((5-(trifluoromethyl)benzo[b]thiophen-2-yl)methyl)-1,8-diazaspiro[4.5] decane-8-carboxylate] are more than 75%, less than 100 nM and “### (% inhibition is greater than or equal to 75%)”.
The corresponding values for `O=C(OC(C(F)(F)F)C(F)(F)F)N1CCC2(CCCN2Cc2sc3ccccc3c2Cl)CC1` [Example 42, 1,1,1,3,3,3-Hexafluoropropan-2-yl 1-((3-chlorobenzo[b]thiophen-2-yl)methyl)-1,8-diazaspiro[4.5] decane-8-carboxylate] are more than 75%, less than 100 nM and “### (% inhibition is greater than or equal to 75%)”.
Turning to `Cc1c(CN2CCCC23CCN(C(=O)OC(C(F)(F)F)C(F)(F)F)CC3)sc2ccccc12` [Example 43, 1,1,1,3,3,3-Hexafluoropropan-2-yl 1-((3-methylbenzo[b]thiophen-2-yl)methyl)-1,8-diazaspiro[4.5] decane-8-carboxylate], the IC50 on MAGL [1] was less than 100 nM. The “MAGL % Inhibition at 5 mg/kg (Mouse)” value at MAGL [2] is listed as “### (% inhibition is greater than or equal to 75%)”.
`COc1ccc(-c2cc(CN3CCCC34CCN(C(=O)OC(C(F)(F)F)C(F)(F)F)CC4)no2)cc1` [Example 46, 1,1,1,3,3,3-Hexafluoropropan-2-yl 1-((5-(4-methoxyphenyl)isoxazol-3-yl)methyl)-1,8-diazaspiro[4.5] decane-8-carboxylate]: on MAGL [1], the IC50 is less than 100 nM. The “MAGL % Inhibition at 5 mg/kg (Mouse)” value at MAGL [2] is “## (% inhibition is less than 75% and greater than 25%)”.
As to `O=C(OC(C(F)(F)F)C(F)(F)F)N1CCC2(CCN(Cc3cc4cc(Cl)ccc4s3)C2)CC1` [Example 51, 1,1,1,3,3,3-Hexafluoropropan-2-yl 2-((5-chlorobenzo[b]thiophen-2-yl)methyl)-2,8-diazaspiro[4.5] decane-8-carboxylate], at MAGL [1], the inhibition at 1 µM was more than 75% and the IC50 was less than 100 nM. Moreover, on MAGL [2], the “MAGL % Inhibition at 5 mg/kg (Mouse)” value was “### (% inhibition is greater than or equal to 75%)”.
On MAGL [1], `O=C(OC(C(F)(F)F)C(F)(F)F)N1CCC2(CCCN2Cc2cc3cc(F)ccc3[nH]2)CC1` [Example 52, 1,1,1,3,3,3-Hexafluoropropan-2-yl 1-((5-fluoro-1H-indol-2-yl)methyl)-1,8-diazaspiro[4.5] decane-8-carboxylate] had an inhibition at 1 µM of more than 75% and a 50% inhibitory concentration (IC50) of less than 100 nM. The “MAGL % Inhibition at 5 mg/kg (Mouse)” value on MAGL [2] is listed as “### (% inhibition is greater than or equal to 75%)”.
The corresponding values for `O=C(OC(C(F)(F)F)C(F)(F)F)N1CCC2(CCCN2Cc2ccc3ccccc3n2)CC1` [Example 54, 1,1,1,3,3,3-Hexafluoropropan-2-yl 1-(quinolin-2-ylmethyl)-1,8-diazaspiro [4.5]decane-8-carboxylate] are more than 75%, less than 100 nM and “### (% inhibition is greater than or equal to 75%)”.
The corresponding values for `Cc1ccc2sc(CN3CCCC34CCN(C(=O)OC(C(F)(F)F)C(F)(F)F)CC4)cc2c1` [Example 61, 1,1,1,3,3.3-Hexafluoropropan-2-yl 1-((5-methylbenzo[b]thiophen-2-yl)methyl)-1,8-diazaspiro[4.5] decane-8-carboxylate] are more than 75%, less than 100 nM and “### (% inhibition is greater than or equal to 75%)”.
At MAGL [1], `O=C(OC(C(F)(F)F)C(F)(F)F)N1CCC2(CCCN2C(=O)c2ccc3occc3c2)CC1` [Example 77, 1,1,1,3,3,3-Hexafluoropropan-2-yl 1-(benzofuran-5-carbonyl)-1,8-diazaspiro[4.5] decane-8-carboxylate] gave an inhibition at 1 µM of more than 75% and an IC50 of less than 100 nM. In addition, at MAGL [2], the “MAGL % Inhibition at 5 mg/kg (Mouse)” value is “### (% inhibition is greater than or equal to 75%)”.
On MAGL [1], `O=C(OC(C(F)(F)F)C(F)(F)F)N1CCC2(CCCN2C(=O)c2cc3cc(Cl)ccc3[nH]2)CC1` [Example 93, 1,1,1,3,3.3-Hexafluoropropan-2-yl 1-(5-chloro-1H-indole-2-carbonyl)-1,8-diazaspiro[4.5] decane-8-carboxylate] returned an inhibition at 1 µM of more than 75% and an IC50 of less than 100 nM. Moreover, the “MAGL % Inhibition at 5 mg/kg (Mouse)” value on MAGL [2] was “### (% inhibition is greater than or equal to 75%)”.
The corresponding values for `O=C(OC(C(F)(F)F)C(F)(F)F)N1CCC2(CCCN2C(=O)c2cc3ccc(C(F)(F)F)cc3s2)CC1` [Example 101, 1,1,1,3,3,3-Hexafluoropropan-2-yl 1-(6-(trifluoromethyl)benzo[b]thiophene-2-carbonyl)-1,8-diazaspiro[4.5] decane-8-carboxylate] are more than 75%, less than 100 nM and “### (% inhibition is greater than or equal to 75%)”.
For `O=C(OC(C(F)(F)F)C(F)(F)F)N1CCC2(CCCN2C(=O)c2cc3cc(C(F)(F)F)ccc3s2)CC1` [Example 102, 1,1,1,3,3,3-Hexafluoropropan-2-yl 1-(5-(trifluoromethyl)benzo[b]thiophene-2-carbonyl)-1,8-diazaspiro[4.5] decane-8-carboxylate], on MAGL [1], the inhibition at 1 µM is more than 75% and the IC50 was less than 100 nM. Further, the “MAGL % Inhibition at 5 mg/kg (Mouse)” value at MAGL [2] is on record as “### (% inhibition is greater than or equal to 75%)”.
The corresponding values for `O=C(OC(C(F)(F)F)C(F)(F)F)N1CCC2(CCCN2C(=O)c2cc3cccc(Cl)c3s2)CC1` [Example 105, 1,1,1,3,3,3-Hexafluoropropan-2-yl 1-(7-chlorobenzo[b]thiophene-2-carbonyl)-1,8-diazaspiro[4.5] decane-8-carboxylate] are more than 75%, less than 100 nM and “### (% inhibition is greater than or equal to 75%)”.
The corresponding values for `Cc1c(C(=O)N2CCCC23CCN(C(=O)OC(C(F)(F)F)C(F)(F)F)CC3)[nH]c2ccc(Cl)cc12` [Example 109, 1,1,1,3,3,3-Hexafluoropropan-2-yl 1-(5-chloro-3-methyl-1H-indole-2-carbonyl)-1,8-diazaspiro[4.5] decane-8-carboxylate] are more than 75%, less than 100 nM and “### (% inhibition is greater than or equal to 75%)”.
Regarding `CC(C)(C)c1cc(CN2CCC3(CCN(C(=O)OC(C(F)(F)F)C(F)(F)F)CC3)C2)n(C2CCOCC2)n1` [Example 213, 1,1,1,3,3,3-Hexafluoropropan-2-yl 2-((3-(t-butyl)-1-(tetrahydro-2H-pyran-4-yl)-1H-pyrazol-5-yl)methyl)-2,8-diazaspiro[4.5]decane-8-carboxylate], on MAGL [1], the inhibition at 1 µM was more than 75% and the IC50 was less than 100 nM. The “MAGL % Inhibition at 5 mg/kg (Mouse)” value on MAGL [2] is “### (% inhibition is greater than or equal to 75%)”.
The corresponding values for `CC(C)c1cc(CN2CCC3(CCN(C(=O)OC(C(F)(F)F)C(F)(F)F)CC3)C2)n(C2CCOCC2)n1` [Example 214, 1,1,1,3,3,3-Hexafluoropropan-2-yl 2-((3-isopropyl-1-(tetrahydro-2H-pyran-4-yl)-1H-pyrazol-5-yl)methyl)-2,8-diazaspiro[4.5]decane-8-carboxylate] are more than 75%, less than 100 nM and “### (% inhibition is greater than or equal to 75%)”.
The corresponding values for `CCc1cc(CN2CCC3(CCN(C(=O)OC(C(F)(F)F)C(F)(F)F)CC3)C2)n(-c2ccccc2Cl)n1` [Example 215, 1,1,1,3,3,3-Hexafluoropropan-2-yl 2-((1-(2-chlorophenyl)-3-ethyl-1H-pyrazol-5-yl)methyl)-2,8-diazaspiro[4.5]decane-8-carboxylate] are more than 75%, less than 100 nM and “### (% inhibition is greater than or equal to 75%)”.
The corresponding values for `CC(C)c1cc(CN2CCC3(CCN(C(=O)OC(C(F)(F)F)C(F)(F)F)CC3)C2)n(-c2ccccc2Cl)n1` [Example 216, 1,1,1,3,3,3-Hexafluoropropan-2-yl 2-((1-(2-chlorophenyl)-3-isopropyl-1H-pyrazol-5-yl)methyl)-2,8-diazaspiro[4.5]decane-8-carboxylate] are more than 75%, less than 100 nM and “### (% inhibition is greater than or equal to 75%)”.
With `CC(C)n1cc(CN2CCC3(CCN(C(=O)OC(C(F)(F)F)C(F)(F)F)CC3)C2)c(-c2cccc(Cl)c2)n1` [Example 218, 1,1,1,3,3,3-Hexafluoropropan-2-yl 2-((3-(3-chlorophenyl)-1-isopropyl-1H-pyrazol-4-yl)methyl)-2,8-diazaspiro[4.5]decane-8-carboxylate], on MAGL [1], the inhibition at 1 µM is more than 75% and the IC50 is less than 100 nM. Further, the “MAGL % Inhibition at 5 mg/kg (Mouse)” value at MAGL [2] is on record as “### (% inhibition is greater than or equal to 75%)”.
The corresponding values for `CC(C)n1cc(CN2CCCC23CCN(C(=O)OC(C(F)(F)F)C(F)(F)F)CC3)c(-c2cccc(Cl)c2)n1` [Example 219, 1,1,1,3,3,3-Hexafluoropropan-2-yl 1-((3-(3-chlorophenyl)-1-isopropyl-1H-pyrazol-4-yl)methyl)-1,8-diazaspiro[4.5]decane-8-carboxylate] are more than 75%, less than 100 nM and “### (% inhibition is greater than or equal to 75%)”.
